In EP2064211B1, “IMIDAZO[1,2-A]PYRIDINE HYDROXYMATE COMPOUNDS THAT ARE INHIBITORS OF HISTONE DEACETYLASE” (MEI Pharma, Inc., priority 2006, dated 2008) one finds IC50, half-life and solubility data, which are given here for 19 compounds.

pIC50: −log10 of the molar value. Converted amounts (≈) assume the structure as drawn.

The test system of one data set is Colo205 cells. The data set is described as follows: Cell-based proliferation assay for determination of GI50 values (CyQUANT). Further details: species or system Human. Conditions: Homo sapiens, COLO 205, compound treatment 96 h, concentration for 50% inhibition of cell growth, read-out: Gl50 (Colo205). The method, then: Human cancer cell lines (e.g. Colo205) were obtained from ATCC. Colo205 cells were cultivated in RPMI 1640 containing 2 mM L-Glutamine, 5% FBS, 1.0 mM Na Pyruvate. Colo205 cells were seeded in 96-wells plate at 5000 cells per well. The plates were incubated at 37°C, 5% CO2, for 24 h. Cells were treated with compounds at various concentrations for 96 h. Cell growth was then monitored using CyQUANT® cell proliferation assay (Invitrogen Pte Ltd). Dose response curves were plotted to determine Gl50 values for the compounds using XL-fit (ID Business Solution, Emeryville, CA). Gl50 is defined as the concentration of compound required for 50% inhibition of cell growth.

Data set [1] in a line: Measurement of microsomal stability. It is filed as in vitro ADME. Conditions: pooled human liver microsomes 1.0 mg/ml, test compound 5 µM, pH 7.4, incubation up to 60 min. On the procedure:
Metabolic stability measurements in vitro using liver microsomes aids in the prediction of in vivo hepatic clearance and compound stability towards phase I biotransformation reactions mediated by P450 isozymes.
Pooled human liver microsome (HLM) preparation was purchased from BD Gentest (BD BioSciences). The incubations consisted of test compound (5 µM) or control compound (Verapamil), NADPH-generating system solution A (25 mM NADP^+, 66 mM glucose-6-phosphate, 66 mM MgCl2 in H2O), NADPH-generating system solution B (40 U/ml glucose-6-phosphate dehydrogenase in 5 mM sodium citrate) and 1.0 mg/ml microsomal protein, respectively, in 100 mM potassium phosphate buffer (pH 7.4). Samples are incubated for 0, 5, 15, 30, 45, 60min. Reaction is terminated with ice-cold 80% acetonitrile and 20% DMSO. Samples are subsequently centrifuged at 4°C for 15 min at 2,000 rpm. 100 µL of the supernatant is transferred to the LC-MS plate for analysis. Before quantitative analysis, the compound is tuned in the LC/MS machine to get the optimized MS condition. Liquid chromatography is performed on a Luna C18 column (Phenomenex U.S.A, Torrance, CA) (2x50mm, […]). Percentage (%) remaining of compound (by area) of each time point is calculated with respect to time 0. Plot %remaining against time (min) to obtain the curve and use the Prism software to obtain the T1/2. […]
(Microsomes from liver hold many membrane-bound enzymes, among them those of drug oxidation.)

The nature of data set [2]: High Throughput Solubility Profiling (HTSP), kinetic solubility. It is filed as physicochemical. Conditions: phosphate buffer with 2.5% DMSO, aqueous buffer, kinetic from dmso stock, phosphate buffer (pH 7), final concentration 250 µM. On the procedure: Determining compound aqueous solubility has become an essential early measurement in the drug discovery process. Poor aqueous solubility can cause problems in many in vitro testing techniques, leading to unreliable results. The standard way to determine the solubility of a compound is to use the shake-flask solubility method. However, this method is inherently low-throughput and labour intensive.
10mM compound stock in DMSO was dissolved in phosphate buffer (pH 7) to give a final concentration of 250µM in 96-well plates in triplicate. The plate was shaken for 1.5 hours at 450 rpm and left to stand for 2 hours to allow the compound to reach its saturation point. The plate was then centrifuged at 2000g for 15 minutes. The supernatant was transferred and mixed with 20µL of DMSO in another 96-well plate. A calibration curve at 100µM and 250µM was prepared from the 10mM stock by dissolving in 60% methanol/phosphate buffer solution. LC/MS was used in the analysis and the area counts were obtained by using the Quantify Method Editor. Using the three point standard curve including zero, the results for solubility were reported. […]

The next data set deals with T1, HDAC1 enzyme (Homo sapiens, UniProt Q13547).
T1 construct: Amplification of human HDAC1 coding region from this cDNA library was cloned separately into the baculovirus expression pDEST20 vector; made in house; host or cells: SF9 insect cells (baculovirus, pDEST20 vector)
T1 sequence (Q13547 whole entry): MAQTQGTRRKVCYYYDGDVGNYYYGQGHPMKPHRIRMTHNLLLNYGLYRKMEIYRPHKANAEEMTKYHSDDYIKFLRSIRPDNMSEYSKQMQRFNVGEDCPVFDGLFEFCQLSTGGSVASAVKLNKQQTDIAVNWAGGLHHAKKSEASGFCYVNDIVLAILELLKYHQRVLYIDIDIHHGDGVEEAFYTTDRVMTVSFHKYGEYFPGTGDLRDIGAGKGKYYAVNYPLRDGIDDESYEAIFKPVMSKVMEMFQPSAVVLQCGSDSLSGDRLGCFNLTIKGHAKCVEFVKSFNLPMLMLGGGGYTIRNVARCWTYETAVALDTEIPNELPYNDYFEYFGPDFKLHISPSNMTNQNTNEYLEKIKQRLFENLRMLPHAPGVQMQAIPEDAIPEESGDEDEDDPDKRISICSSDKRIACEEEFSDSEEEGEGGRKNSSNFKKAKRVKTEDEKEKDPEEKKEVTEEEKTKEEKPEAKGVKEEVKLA
Nature of the data set: In vitro HDAC assay for determination of IC50 values (BIOMOL fluorescent-based HDAC activity assay). Particulars: recombinant GST-HDAC1, 500 uM Flur de lys substrate, room temperature 2 h; read-out: IC50 (HDAC 1). It is filed as biochemical. The method, then:
Human cDNA library was prepared using cultured SW620 cells. Amplification of human HDAC1 coding region from this cDNA library was cloned separately into the baculovirus expression pDEST20 vector (GATEWAY Cloning Technology, Invitrogen Pte Ltd). The pDEST20-HDAC1 construct was confirmed by DNA sequencing. Recombinant baculovirus was prepared using the Bac-To-Bac method following the manufacturer's instruction (Invitrogen Pte Ltd).
Expression of GST-HDAC1 was done by infecting SF9 cells (Invitrogen Pte Ltd) with pDEST20-HDAC1 baculovirus at MOI=1 for 48 h. Soluble cell lysate was incubated with pre-equilibrated Glutathione Sepharose 4B beads (Amersham) at 4°C for 2 h. The beads were washed with PBS buffer for 3 times. The GST-HDAC1 protein was eluted by elution buffer containing 50 mM Tris, pH8.0, 150mM NaCl, 1% Triton X-100 and 10mM or 20mM reduced Glutathione. The purified GST-HDAC1 protein was dialyzed with HDAC storage buffer containing 10mM Tris, pH7.5, 100mM NaCl and 3mM MgCl2. 20% Glycerol was added to purified GST-HDAC1 protein before storage at -80°C.
The assay has been carried out in 96 well format and the BIOMOL fluorescent-based HDAC activity assay has been applied. The reaction composed of assay buffer, containing 25 mM Tris pH 7.5, 137 mM NaCl, 2.7 mM KCl, 1 mM MgCl2, 1 mg/ml BSA, tested compounds, an appropriate concentration of HDAC1 enzyme, 500 uM Flur de lys generic substrate for HDAC1 enzyme and subsequently was incubated at room temperature for 2 h. Flur de lys Developer was added and the reaction was incubated for 10 min. Briefly, deacetylation of the substrate sensitizes it to the developer, which then generates a fluorophore. The fluorophore is excited with 360 nm light and the emitted light (460 nm) is detected on a fluorometric plate reader (Tecan Ultra Microplate detection system, Tecan Group Ltd.).
The analytical software, Prism 4.0 (GraphPad Software Inc) has been used to generate IC50 from a series of data. IC50 is defined as the concentration of compound required for 50% inhibition of HDAC enzyme activity.

In the case of `CCCCc1nc2cc(C=CC(=O)NO)ccn2c1CNC(C)(C)C` [Compound 5, 3-[2-Butyl-3-(tert-butylamino-methyl)-imidazo[1,2-a]pyridin-7-yl]-N-hydroxy-acrylamide], the pIC50 in the data set with Colo205 cells was 6.85; on HDAC1 enzyme it was 7.70. The compound further gave a half-life at 5 µM in data set [1] above 1 h. The compound further showed a solubility in data set [2] of 200 µM (≈ 68.9 µg/mL).
For `CCc1nc2cc(C=CC(=O)NO)ccn2c1CN(CC)CCC(C)C` [Compound 64, 3-(2-Ethyl-3-{[ethyl-(3-methyl-butyl)-amino]-methyl}-imidazo[1,2-a]pyridin-7-yl)-N-hydroxy-acrylamide], the pIC50 in the data set with Colo205 cells was 7.00; on HDAC1 enzyme it was 7.70. In data set [1], this compound displayed a half-life at 5 µM above 1 h.
Taken in the same sequence, the figures for `CCN(CCC(C)(C)C)Cc1c(C)nc2cc(C=CC(=O)NO)ccn12` [Compound 50, 3-(3-{[(3,3-Dimethyl-butyl)-ethyl-amino]-methyl}-2-methyl-imidazo[1,2-a]pyridin-7-yl)-N-hydroxy-acrylamide] were 6.80, 7.30 and 0.75 h.
Consider `CCCCN(CC)Cc1c(CC)nc2cc(C=CC(=O)NO)ccn12` [Compound 63, 3-{3-[(Butyl-ethyl-amino)-methyl]-2-ethyl-imidazo[1,2-a]pyridin-7-yl}-N-hydroxy-acrylamide], for which the values for the pIC50 in the data set on Colo205 cells and at HDAC1 enzyme were 6.74 and 7.30, respectively. This compound had a half-life at 5 µM in data set [1] above 1 h.
`CCCCN(CC)Cc1c(C)nc2cc(C=CC(=O)NO)ccn12` [Compound 29, 3-{3-[(Butyl-ethyl-amino)-methyl]-2-methyl-imidazo[1,2-a]pyridin-7-yl}-N-hydroxy-acrylamide]: the pIC50 in the data set with Colo205 cells was 6.74; on HDAC1 enzyme, 7.52. In data set [1], this compound showed a half-life at 5 µM of 0.983 h.
Turning to `CCCc1nc2cc(C=CC(=O)NO)ccn2c1CNC(C)(C)C` [Compound 48, 3-[3-(tert-Butylamino-methyl)-2-propyl-imidazo[1,2-a]pyridin-7-yl]-N-hydroxy-acrylamide], the results for the pIC50 in the data set on Colo205 cells and at HDAC1 enzyme were 6.74 and 7.40, respectively. The compound also gave a half-life at 5 µM in data set [1] above 1 h. Further, the solubility in data set [2] came out at 168 µM (≈ 55.5 µg/mL).
Turning to `CCNCc1c(C(C)(C)C)nc2cc(C=CC(=O)NO)ccn12` [Compound 15, 3-(2-tert-Butyl-3-ethylaminomethyl-imidazo[1,2-a]pyridin-7-yl)-N-hydroxy-acrylamide], the figures for the pIC50 with Colo205 cells and on HDAC1 enzyme were 6.33 and 7.22, respectively.
Taken in the same sequence, the figures for `CCCCNCc1c(CCCC)nc2cc(C=CC(=O)NO)ccn12` [Compound 4, 3-(2-Butyl-3-butylaminomethyl-imidazo[1,2-a]pyridin-7-yl)-N-hydroxy-acrylamide] were 6.74 and 7.70.
Taken in the same sequence, the figures for `CCCCc1nc2cc(C=CC(=O)NO)ccn2c1CN(CC)CCC(C)C` [Compound 42, 3-(2-Butyl-3-{[ethyl-(3-methyl-butyl)-amino]-methyl}-imidazo[1,2-a]pyridin-7-yl)-N-hydroxy-acrylamide] were 7.05 and 7.70.
On the same counts, the results for `CCN(Cc1c(C)nc2cc(C=CC(=O)NO)ccn12)CC(C)(C)C` [Compound 39, 3-(3-{[(2,2-Dimethyl-propyl)-ethyl-amino]-methyl}-2-methyl-imidazo[1,2-a]pyridin-7-yl)-N-hydroxy-acrylamide] are 6.22 and 7.30.
`CCN(CCC(C)(C)C)Cc1c(C(C)(C)C)nc2cc(C=CC(=O)NO)ccn12` [Compound 23, 3-(2-tert-Butyl-3-{[(3,3-dimethyl-butyl)-ethyl-amino]-methyl}-imidazo[1,2-a]pyridin-7-yl)-N-hydroxy-acrylamide]: the pIC50 was 6.32 with Colo205 cells and 7.15 at HDAC1 enzyme.
On the same counts, the results for `CC(C)Cc1nc2cc(C=CC(=O)NO)ccn2c1CNC(C)(C)C` [Compound 58, 3-[3-(tert-Butylamino-methyl)-2-isobutyl-imidazo[1,2-a]pyridin-7-yl]-N-hydroxy-acrylamide] are 6.68 and 7.30.
As to `CCN(CCCSC)Cc1c(C(C)(C)C)nc2cc(C=CC(=O)NO)ccn12` [Compound 26, 3-(2-tert-Butyl-3-{[ethyl-(3-methylsulfanyl-propyl)-amino]-methyl}-imidazo[1,2-a]pyridin-7-yl)-N-hydroxy-acrylamide], the pIC50 in the data set on Colo205 cells is 6.22; at HDAC1 enzyme, 7.05.
`CCN(CCC(C)C)Cc1c(C)nc2cc(C=CC(=O)NO)ccn12` [Compound 49, 3-(3-{[Ethyl-(3-methyl-butyl)-amino]-methyl}-2-methyl-imidazo[1,2-a]pyridin-7-yl)-N-hydroxy-acrylamide]: the pIC50 in the data set with Colo205 cells is 6.96. The compound also registered a half-life at 5 µM in data set [1] above 1 h. In addition, the solubility in data set [2] was above 250 µM.
On to `CCCCN(CC)Cc1c(CC(C)C)nc2cc(C=CC(=O)NO)ccn12` [Compound 59, 3-{3-[(Butyl-ethyl-amino)-methyl]-2-isobutyl-imidazo[1,2-a]pyridin-7-yl}-N-hydroxy-acrylamide], for which the pIC50 was 6.82 in the data set with Colo205 cells and 7.40 on HDAC1 enzyme.
Consider `CC(C)CCc1nc2cc(C=CC(=O)NO)ccn2c1CNC(C)(C)C` [Compound 65, 3-[3-(tert-Butylamino-methyl)-2-(3-methyl-butyl)-imidazo[1,2-a]pyridin-7-yl]-N-hydroxy-acrylamide], for which the pIC50 in the data set with Colo205 cells is 7.00; at HDAC1 enzyme it was 7.70. In data set [1], this compound showed a half-life at 5 µM above 1 h.
Regarding `CCCN(CC)Cc1c(C)nc2cc(C=CC(=O)NO)ccn12` [Compound 30, 3-{3-[(Ethyl-propyl-amino)-methyl]-2-methyl-imidazo[1,2-a]pyridin-7-yl}-N-hydroxy-acrylamide], the pIC50 with Colo205 cells was 5.34; on HDAC1 enzyme it was 6.27.
Taken in the same sequence, the figures for `CCN(CC)Cc1c(C(C)(C)C)nc2cc(C=CC(=O)NO)ccn12` [Compound 11, 3-(2-tert-Butyl-3-diethylaminomethyl-imidazo[1,2-a]pyridin-7-yl)-N-hydroxy-acrylamide] were 5.36 and 5.92.
For `CCCCCCCN(CC)Cc1c(C(C)(C)C)nc2cc(/C=C/C(=O)NO)ccn12` [Compound 25], the pIC50 with Colo205 cells was 5.57; on HDAC1 enzyme, 6.27.

Usually half-life stands for the time in which the quantity being followed falls by half. Low readings indicate fast loss, high ones slow loss. The solubility is the dissolved amount per volume that the medium holds. Read a low solubility as a poorly soluble substance.
